Reference: patent US7700581B2, “Cephalosporin compounds comprising a C3 thio-methyl moiety substituted with N-containing heterocyclic group, and a C7 thiourea acetamido group, their preparations and uses thereof” (Guangzhou Baiyunshan Pharmaceutical Co., Ltd., priority 2007, dated 2010)
≈ marks a conversion by molar mass, not a printed value. Read-outs that look alike come from different tables or passages of the source. One block for each compound: values may come before it.

Columns and labels:
Salmonella = assay: In vitro antibacterial activity test (MIC); type: cell-based; conditions: read-out: minimum inhibitory concentration (MIC)
Protocol: (§1) In vitro antibacterial activity test of the cephalosporin compounds disclosed herein using the common methods known in the art were conducted.

Staphylococcus aureus = assay: In vitro antibacterial activity test (MIC); type: cell-based; conditions: read-out: minimum inhibitory concentration (MIC)
Protocol: as §1

Enterococcus = assay: In vitro antibacterial activity test (MIC); type: cell-based; conditions: read-out: minimum inhibitory concentration (MIC)
Protocol: as §1

[1] = tested on: Staphylococcus epidermidis; assay: In vitro antibacterial activity test (MIC); type: cell-based; conditions: read-out: minimum inhibitory concentration (MIC)
Protocol: as §1

Streptococcus pneumoniae = assay: In vitro antibacterial activity test (MIC); type: cell-based; conditions: read-out: minimum inhibitory concentration (MIC)
Protocol: as §1

Hemophilus influenzae = assay: In vitro antibacterial activity test (MIC); type: cell-based; conditions: Haemophilus influenzae, read-out: minimum inhibitory concentration (MIC)
Protocol: as §1

Pseudomonas aeruginosa = assay: In vitro antibacterial activity test (MIC); type: cell-based; conditions: read-out: minimum inhibitory concentration (MIC)
Protocol: as §1

[2] = Pharmacokinetic comparative experiment, intravenous injection, plasma by HPLC; type: in vivo, Beagle dogs
Protocol: The resulting BYS02 obtained from the Examples 6 and 7 as shown above was used to compare with cefathiamidine in the following pharmacokinetic study.
Commercially available cefathiamidine was used as the comparison in the pharmacokinetic study. Using the cross-over controlled trial experimental design, 6 healthy Beagle dogs were divided into two groups: one group of dogs were intravenously injected with 50 mg/kg.bw of the BYS02 and the other group of dogs were injected with 50 mg/kg.bw of cefathiamidine. Blood samples were taken every 12 hours. The drug plasma concentrations were analyzed using HPLC. The drug plasma concentration over the time data were analyzed using MCPKP program.
Six Beagle dogs were provided by Guangzhou Pharmaceutical Research Institute. They were healthy, male, one-year old, and each weighed 8.0±0.1 kg. The dogs were kept in single-dog cages and fed with water and food according to the standards for laboratory animals. One week before the tests, the dogs were examined for hearts, livers, and kidneys, and they were found normal.
BYS02 was prepared according to Example 6 with a purity of 90%. Cefathiamidine was purchased from the market. Heparin sodium, sodium hydrogen phosphate, citric acid, methanol, ethyl acetate and other agents used were analytical-pure. Propionitrile used was chromatographic-pure. Water is pure. High Performance Liquid Chromatography (HPLC) and high-speed refrigerated centrifuges were used in the tests.
Sixteen hours before and 4 hours after the administration, the Beagle dogs were not allowed to eat food but allowed to drink water freely. After intravenously injection with 50 mg/kg.bw of the BYS02 and cefathiamidine, respectively, the two groups of dogs were taken 3 ml of blood samples intravenously at 0, 0.083, 0.17, 0.25, 0.5, 1, 1.5, 2, 3, 4, 6, 9, and 12 hours. The dogs were administrated every other week and blood samples were collected according to the above schedule. The blood samples were added to centrifuge tubes, mixed with heparin, centrifuged at 4000 rpm for 10 minutes, and the serum samples were stored in a refrigerator at −20° C. until they were used.
Hypersil ODS2, C18 column (4.6 mm×150 mm, 5 μm); mobile phase: propionitrile/phosphate buffer (11/89 volume ratio); wavelength: 254 nm; flow rate: 1.0 ml/min; room temperature; sample size: 20 μl.
Preparation of phosphate buffer (pH 7.0): 2.76 g of sodium hydrogen phosphate, 1.29 g of citric acid and 1000 ml of water were mixed well and filtered.
Drug plasma concentration over the time data were analyzed using MCPKP program to calculate the pharmacokinetic parameters. The average values and standard deviations were also calculated.

[3] = Water solubility of the product; type: physicochemical; conditions: product of Example 6
Protocol: 200 ml of methylene dichloride and 2.0 g of the intermediate prepared according to Example 1 were added to a three-neck flask. 16 ml of triethylamine was added dropwise to the flask to dissolve the solid. 0.6 g of N,N′-diisopropylthiourea was added to the reaction mixture. The mixture was refluxed until the reaction was complete. A solid product appeared in the reaction mixture. The temperature was lowered and the crystallization was carried out for an hour. The solid was filtered and dried under vacuum to yield 1.5 g of the product. It has a pH value of 5.4 and cloudiness of lower than 1 degree (1 g/10 ml water). The product is water soluble.

SPF grade mice = assay: Acute toxicity test by intravenous injection; type: in vivo
From the text: A commonly-used acute toxicity test method was used with SPF grade mice by intravenous injection.

Viridans streptococcus = assay: In vitro antibacterial activity test (MIC); type: cell-based; conditions: read-out: minimum inhibitory concentration (MIC)
Protocol: as §1

[4] = tested on: Streptococcus hemolyticus group A; assay: In vitro antibacterial activity test (MIC); type: cell-based; conditions: Streptococcus pyogenes, read-out: minimum inhibitory concentration (MIC)
Protocol: as §1

Streptococcus pyogenes = assay: In vitro antibacterial activity test (MIC); type: cell-based; conditions: read-out: minimum inhibitory concentration (MIC)
Protocol: as §1

[5] = Beagle dogs, intravenous injection, 50 mg/kg.bw
[6] = single intravenous administration

SMILES: CO/N=C(\C(=O)N[C@@H]1C(=O)N2C(C(=O)O)=C(CSc3nc(=O)c(=O)[nH]n3C)CS[C@H]12)c1csc(N)n1 [Ceftriaxone, ceftriaxone, reference compound]
- MIC (Salmonella): 0.125 µg/mL (≈ 0.225 µM)
- MIC (Staphylococcus aureus): 32 to 64 µg/mL (≈ 57.7 to 115 µM)
- MIC (Enterococcus): > 512 µg/mL
- MIC [1]: 2 to 8 µg/mL (≈ 3.61 to 14.4 µM)

SMILES: CC(C)N=C(NC(C)C)SCC(=O)NC1C(=O)N2C(C(=O)O)=C(CSc3nc(=O)c(=O)[nH]n3C)CSC12 (stereo not drawn) [Compound II, 3-((1,2,5,6-tetrahydro-2-methyl-5,6-dioxo-1,2,4-triazine-3-ylthio)methyl)-7-[[[[[(1-methylethyl)amino][(1-methylethyl)imino]methyl]thio]acetyl]amino]-8-oxo-5-thia-1-aza-bicyclo[4.2.0]oct-2-ene-2-carboxylic acid]
- MIC (Streptococcus pneumoniae): 0.125 to 0.5 µg/mL (≈ 0.219 to 0.875 µM)
- MIC (Hemophilus influenzae): 8 to 16 µg/mL (≈ 14 to 28 µM)
- MIC (Pseudomonas aeruginosa): > 512 µg/mL
- MIC (Staphylococcus aureus): 1 to 4 µg/mL (≈ 1.75 to 7 µM)
- MIC (Enterococcus): 4 to 8 µg/mL (≈ 7 to 14 µM)
- MIC [1]: 0.0312 to 2 µg/mL (≈ 0.0546 to 3.5 µM)
- ClB [2, 5]: 7.83 ± 1.5 mL/min/kg
- Co [2, 5]: 208.97 ± 61.16 µg/mL
- V1 [2, 5]: 0.25 ± 0.07 L/kg
- VB [2, 5]: 1.61 ± 0.30 L/kg
- t1/2α [2, 5]: 37.8 ± 7.2 min
- t1/2β [2, 5]: 131 ± 2.4 min
- AUC ([2]; male, dog, in vivo, Beagle dogs, intravenous injection, 50 mg/kg.bw, read-out: AUC): 108 ± 18.2 µg·h/mL
- solubility in water [3]: water soluble
- LD50 (SPF grade mice; [6]): 672 mg/kg.bw
- LD50 95% confidence limit (SPF grade mice; [6]): 650-700 mg/kg.bw
- mortality (SPF grade mice; single intravenous injection of 465 mg/kg.bw): No death
- mortality (SPF grade mice; single intravenous injection of 930 mg/kg.bw or more): the animals died after 10 seconds of struggling

SMILES: Cc1nc(SCC2=C(C(=O)O)N3C(=O)C(NC(=O)CSC(=NC(C)C)NC(C)C)C3SC2)sc1CC(=O)O (stereo not drawn) [Compound V, 3-[[[5-(carboxymethyl)-4-methyl-2-thiazolyl]thio]methyl]-7-[[[[[(1-methylethyl)amino][(1-methylethyl)imino]methyl]thio]acetyl]amino]-8-oxo-5-thia-1-aza-bicyclo[4.2.0]oct-2-ene-2-carboxylic acid]
- MIC (Hemophilus influenzae): > 256 µg/mL
- MIC (Viridans streptococcus): 0.125 to 4 µg/mL (≈ 0.208 to 6.65 µM)
- MIC (Salmonella): 2 to 8 µg/mL (≈ 3.32 to 13.3 µM)
- MIC [4]: 0.125 to 1 µg/mL (≈ 0.208 to 1.66 µM)
- MIC (Staphylococcus aureus): 0.25 to 2 µg/mL (≈ 0.415 to 3.32 µM)
- MIC (Streptococcus pyogenes): 0.0312 to 0.5 µg/mL (≈ 0.0518 to 0.831 µM)
- MIC (Enterococcus): 2 to 8 µg/mL (≈ 3.32 to 13.3 µM)

- AUC ([2]; dog, in vivo, iv, 50 mg/kg): 42.25 ± 1.02 µg·h/mL
- ClB ([2]; dog, in vivo, iv, 50 mg/kg): 19.7 ± 0.5 mL/min/kg
- Co ([2]; dog, in vivo, iv, 50 mg/kg): 90.84 ± 29.71 µg/mL
- V1 ([2]; dog, in vivo, iv, 50 mg/kg): 0.59 ± 0.20 L/kg
- VB ([2]; dog, in vivo, iv, 50 mg/kg): 1.11 ± 0.07 L/kg
- t1/2α ([2]; dog, in vivo, iv, 50 mg/kg): 12.6 ± 8.4 min
- t1/2β ([2]; dog, in vivo, iv, 50 mg/kg): 39 ± 1.8 min
SMILES: CC(=O)OCC1=C(C(=O)O)N2C(=O)[C@@H](NC(=O)CSC(=NC(C)C)NC(C)C)[C@H]2SC1 [cefathiamidine, reference compound]
